# Source: patent publication US8835466B2, “Synthesis and uses of pyroglutamic acid derivatives” (Prodimed, S.A., priority 2006, dated 2014)
# System: KLN 205 cells (lung cell carcinoma)
# Assay: Effect of 9d and Cisplatin on KLN 205 tumour growth after subcutaneous, intradermal or intramuscular inoculation (Example 12)
# Assay type: in vivo, DBA/2 mice
# Procedure: This was carried out by measuring two perpendicular diameters (d1/d2) with a calliper. These measures were used to obtain both tumour surface and volume: […] Results were expressed as single values and/or as the mean±SD or median from each experimental group. This assay was made in order to check the effect on in vivo tumour growth in mice challenged with KLN 205 cells. Tumours where established by subcutaneous, intradermal or intramuscular inoculation. The effect of the combination of cisplatin and/or Isomer (9d) was compared with placebo in mice challenged intradermally. […] KLN 205 is a lung cell carcinoma originated in DBA/2 mouse strain, and therefore syngeneic in mice with DBA/2 genetic background (Kaneko T and […]. Growth characteristics and drug responses of a murine lung carcinoma in vitro and in vivo. Cancer Research. 38: 2084-2090; 1978). KLN 205 cells (CLS, Eppelheim, Germany) were maintained in vitro by serial passages every 3-4 days. […] Louis, Mo., USA) by seeding 5×10^6 cells onto 75 cm^2 culture flasks. Subcultures were carried out by collecting detached cells after treatment with trypsin-EDTA (Sigma, St. Louis, Mo., USA). Tumour cells, collected from 48 hour cultures, were used as source of KLN 205 cells for the studies described below. […] Tumours were established by subcutaneous and intradermal inoculation in the right hind flank, and intramuscular in the right hind leg. Mice (DBA/2) were inoculated with 0.05 mL containing 2×10^5 viable KLN 205 cells. The day of subcutaneous, intradermal and intramuscular inoculation will be considered Day 0 of the test. A case-control study was performed with treated and control mice in order to determine whether differences between placebo, 9d, Cisplatin or 9d+Cisplatin were present. The data obtained (tumour surface and volume) were tested for Normal distribution within the groups (Kolmogorov Smirnov test p<0.05). […] The U-test of Mann Withney was chosen for being one of the better known non-parametrical tests, anyway, results for this test are equivalent both to those of Wilcoxon's sum of ranges and Kruskal-Wallis two-groups test.
# [1] = Groups B2-B4 (9d 250 ng, Cisplatin 65 μg, or both), day 0 after tumour inoculation
# [2] = Groups B2-B4 (9d 250 ng, Cisplatin 65 μg, or both), day 10 after tumour inoculation
# [3] = Groups B2-B4 (9d 250 ng, Cisplatin 65 μg, or both), day 13 after tumour inoculation
# [4] = Groups B2-B4 (9d 250 ng, Cisplatin 65 μg, or both), day 17 after tumour inoculation
# [5] = Groups B2-B4 (9d 250 ng, Cisplatin 65 μg, or both), day 20 after tumour inoculation
# [6] = Groups B2-B4 (9d 250 ng, Cisplatin 65 μg, or both), day 24 after tumour inoculation
# [7] = Groups B2-B4 (9d 250 ng, Cisplatin 65 μg, or both), day 27 after tumour inoculation
# [8] = Groups B2-B4 (9d 250 ng, Cisplatin 65 μg, or both), day 31 after tumour inoculation
# [9] = Group A2 (9d 250 ng/mouse), day 0 after tumour inoculation
# [10] = Group A2 (9d 250 ng/mouse), day 10 after tumour inoculation
# [11] = Group A2 (9d 250 ng/mouse), day 13 after tumour inoculation
# [12] = Group A2 (9d 250 ng/mouse), day 17 after tumour inoculation
# [13] = Group A2 (9d 250 ng/mouse), day 20 after tumour inoculation
# [14] = Group A2 (9d 250 ng/mouse), day 24 after tumour inoculation
# [15] = Group A2 (9d 250 ng/mouse), day 27 after tumour inoculation
# [16] = Group A2 (9d 250 ng/mouse), day 31 after tumour inoculation
# [17] = Group C2 (9d 250 ng/mouse), day 0 after tumour inoculation
# [18] = Group C2 (9d 250 ng/mouse), day 10 after tumour inoculation
# [19] = Group C2 (9d 250 ng/mouse), day 13 after tumour inoculation
# [20] = Group C2 (9d 250 ng/mouse), day 17 after tumour inoculation
# [21] = Group C2 (9d 250 ng/mouse), day 20 after tumour inoculation
# [22] = Group C2 (9d 250 ng/mouse), day 24 after tumour inoculation
# [23] = Group C2 (9d 250 ng/mouse), day 27 after tumour inoculation
# [24] = Group C2 (9d 250 ng/mouse), day 31 after tumour inoculation
# [25] = Group C2 (9d 250 ng/mouse), day 34 after tumour inoculation
# [26] = Group C2 (9d 250 ng/mouse), day 38 after tumour inoculation
compound,measurement,setting,value
"N.N.[Cl][Pt][Cl] [Cisplatin, reference compound]",SURFACE Overall values (Mean),[1],0 mm^2
same,SURFACE Overall values (Median),[1],0 mm^2
same,VOLUME Overall values (Mean),[1],0 mm^3
same,VOLUME Overall values (Median),[1],0 mm^3
same,SURFACE Overall values (Mean),[2],7.3 mm^2
same,SURFACE Overall values (Median),[2],6.5 mm^2
same,VOLUME Overall values (Mean),[2],11.05 mm^3
same,VOLUME Overall values (Median),[2],8.75 mm^3
same,SURFACE Overall values (Mean),[3],20 mm^2
same,SURFACE Overall values (Median),[3],20 mm^2
same,VOLUME Overall values (Mean),[3],43.6 mm^3
same,VOLUME Overall values (Median),[3],40 mm^3
same,SURFACE Overall values (Mean),[4],38.3 mm^2
same,SURFACE Overall values (Median),[4],33 mm^2
same,VOLUME Overall values (Mean),[4],115.95 mm^3
same,VOLUME Overall values (Median),[4],91.5 mm^3
same,SURFACE Overall values (Mean),[5],62.2 mm^2
same,SURFACE Overall values (Median),[5],56 mm^2
same,VOLUME Overall values (Mean),[5],233.5 mm^3
same,VOLUME Overall values (Median),[5],196 mm^3
same,SURFACE Overall values (Mean),[6],93.7 mm^2
same,SURFACE Overall values (Median),[6],96 mm^2
same,VOLUME Overall values (Mean),[6],408.05 mm^3
same,VOLUME Overall values (Median),[6],384 mm^3
same,SURFACE Overall values (Mean),[7],124.1 mm^2
same,SURFACE Overall values (Median),[7],129 mm^2
same,VOLUME Overall values (Mean),[7],642.55 mm^3
same,VOLUME Overall values (Median),[7],646.5 mm^3
same,SURFACE Overall values (Mean),[8],151.3 mm^2
same,SURFACE Overall values (Median),[8],155 mm^2
same,VOLUME Overall values (Mean),[8],848.95 mm^3
same,VOLUME Overall values (Median),[8],775 mm^3
same,"Inhibition of the in vivo growth of intradermal KLN 205 cells, in words",intradermal inoculation,inhibit the in vivo growth
same,"Differences in intradermal KLN 205 tumour growth rate vs. placebo, statistical significance p (Mann-Whitney U test)","intradermal inoculation, surface or volume, days 17th, 20th and 31th",< 0.05
"Br.N[C@]1(C[n+]2ccccc2)C[C@H](C(=O)O)NC1=O.[Br-] (single isomer, unassigned; isomer 4) [isomer 4, 3S,5R-1-(3-Amino-5-carboxy-2-oxopyrrolidin-3-ylmethyl)pyridinium bromide hidrobromide]",SURFACE Overall values (Mean),[9],0 mm^2
same,SURFACE Overall values (Median),[9],0 mm^2
same,VOLUME Overall values (Mean),[9],0 mm^3
same,VOLUME Overall values (Median),[9],0 mm^3
same,SURFACE Overall values (Mean),[10],11.4 mm^2
same,SURFACE Overall values (Median),[10],12.5 mm^2
same,VOLUME Overall values (Mean),[10],22 mm^3
same,VOLUME Overall values (Median),[10],22.75 mm^3
same,SURFACE Overall values (Mean),[11],27.4 mm^2
same,SURFACE Overall values (Median),[11],30 mm^2
same,VOLUME Overall values (Mean),[11],75.5 mm^3
same,VOLUME Overall values (Median),[11],75 mm^3
same,SURFACE Overall values (Mean),[12],49 mm^2
same,SURFACE Overall values (Median),[12],45 mm^2
same,VOLUME Overall values (Mean),[12],171.6 mm^3
same,VOLUME Overall values (Median),[12],135 mm^3
same,SURFACE Overall values (Mean),[13],74.4 mm^2
same,SURFACE Overall values (Median),[13],70 mm^2
same,VOLUME Overall values (Mean),[13],304.2 mm^3
same,VOLUME Overall values (Median),[13],245 mm^3
same,SURFACE Overall values (Mean),[14],117.4 mm^2
same,SURFACE Overall values (Median),[14],118.5 mm^2
same,VOLUME Overall values (Mean),[14],554.9 mm^3
same,VOLUME Overall values (Median),[14],506.25 mm^3
same,SURFACE Overall values (Mean),[15],149.3 mm^2
same,SURFACE Overall values (Median),[15],159 mm^2
same,VOLUME Overall values (Mean),[15],765.05 mm^3
same,VOLUME Overall values (Median),[15],800 mm^3
same,SURFACE Overall values (Mean),[16],179.2 mm^2
same,SURFACE Overall values (Median),[16],186 mm^2
same,VOLUME Overall values (Mean),[16],1020 mm^3
same,VOLUME Overall values (Median),[16],1058.75 mm^3
same,SURFACE Overall values (Mean),[17],0 mm^2
same,SURFACE Overall values (Median),[17],0 mm^2
same,SURFACE Overall values (Mean),[18],0.06 mm^2
same,SURFACE Overall values (Median),[18],0.03 mm^2
same,SURFACE Overall values (Mean),[19],0.18 mm^2
same,SURFACE Overall values (Median),[19],0.17 mm^2
same,SURFACE Overall values (Mean),[20],0.37 mm^2
same,SURFACE Overall values (Median),[20],0.315 mm^2
same,SURFACE Overall values (Mean),[21],0.89 mm^2
same,SURFACE Overall values (Median),[21],0.93 mm^2
same,SURFACE Overall values (Mean),[22],2.48 mm^2
same,SURFACE Overall values (Median),[22],1.83 mm^2
same,SURFACE Overall values (Mean),[23],6.7 mm^2
same,SURFACE Overall values (Median),[23],6.94 mm^2
same,SURFACE Overall values (Mean),[24],13.61 mm^2
same,SURFACE Overall values (Median),[24],12.26 mm^2
same,SURFACE Overall values (Mean),[25],29.17 mm^2
same,SURFACE Overall values (Median),[25],24.34 mm^2
same,SURFACE Overall values (Mean),[26],41.53 mm^2
same,SURFACE Overall values (Median),[26],37.56 mm^2
same,SURFACE Overall values (Mean),[1],0 mm^2
same,SURFACE Overall values (Median),[1],0 mm^2
same,VOLUME Overall values (Mean),[1],0 mm^3
same,VOLUME Overall values (Median),[1],0 mm^3
same,SURFACE Overall values (Mean),[2],14.3 mm^2
same,SURFACE Overall values (Median),[2],12.5 mm^2
same,VOLUME Overall values (Mean),[2],28.85 mm^3
same,VOLUME Overall values (Median),[2],22.75 mm^3
same,SURFACE Overall values (Mean),[3],27.9 mm^2
same,SURFACE Overall values (Median),[3],25 mm^2
same,VOLUME Overall values (Mean),[3],74.95 mm^3
same,VOLUME Overall values (Median),[3],62.5 mm^3
same,SURFACE Overall values (Mean),[4],46.3 mm^2
same,SURFACE Overall values (Median),[4],42 mm^2
same,VOLUME Overall values (Mean),[4],150.05 mm^3
same,VOLUME Overall values (Median),[4],126 mm^3
same,SURFACE Overall values (Mean),[5],71.2 mm^2
same,SURFACE Overall values (Median),[5],63.5 mm^2
same,VOLUME Overall values (Mean),[5],280.6 mm^3
same,VOLUME Overall values (Median),[5],232.75 mm^3
same,SURFACE Overall values (Mean),[6],107.8 mm^2
same,SURFACE Overall values (Median),[6],95 mm^2
same,VOLUME Overall values (Mean),[6],496.8 mm^3
same,VOLUME Overall values (Median),[6],425.25 mm^3
same,SURFACE Overall values (Mean),[7],141.7 mm^2
same,SURFACE Overall values (Median),[7],128 mm^2
same,VOLUME Overall values (Mean),[7],744.75 mm^3
same,VOLUME Overall values (Median),[7],608.5 mm^3
same,SURFACE Overall values (Mean),[8],177.1 mm^2
same,SURFACE Overall values (Median),[8],162.5 mm^2
same,VOLUME Overall values (Mean),[8],1029.35 mm^3
same,VOLUME Overall values (Median),[8],885.75 mm^3
same,"Differences in intradermal KLN 205 tumour growth rate vs. placebo, in words","intradermal inoculation, Mann-Whitney U test",not differences
same,"Intradermal KLN 205 tumour growth vs. placebo, tendency in words","intradermal inoculation, surface or volume, all days scored after day 17th",significant tendency
same,"Differences in intramuscular KLN 205 tumour growth rate vs. placebo, in words","intramuscular inoculation, Mann-Whitney U test",not differences
same,"Inhibition of the in vivo growth of subcutaneous KLN 205 cells, in words",subcutaneous inoculation,inhibit the in vivo growth
same,"Differences in subcutaneous KLN 205 tumour growth rate vs. placebo, statistical significance p (Mann-Whitney U test)","subcutaneous inoculation, surface or volume, all days scored after the day 20th",< 0.05
